Where two headings read alike, the source gives them in different places.

Data set [1] can be described thus: In vivo release of rapamycin from TEAC formulation in vitreous cavity, LC-MS. The settings on record: 5.0 mg rapamycin in 10:90 rapamycin:TEAC mixture. More on the design: species or system NZW rabbits. The method, then:
Five (5.0) mg rapamycin contained in a 10:90 rapamycin:TEAC mixture were injected into the vitreous cavity of one eye in three 4.0-4.5 kg. NZW rabbits. Vitreous sampling was performed in each animal, and the concentration of released Rapamycin determined by liquid chromatography and mass spectrometry.

For data set [2] the following is noted: 3:1 dexamethasone:ciprofloxacin in benzyl benzoate.
Method: The vials for the release studies were labeled and the weight of each vial was recorded. To each vial was added 3-4 grams of 0.9% saline solution and the weight was recorded. Then the SRF was injected or placed at the bottom of the vial. The weight of the SRF was recorded. An additional amount of 0.9% saline solution was added to a total of 10 grams of saline. The resulting vial was kept in an incubator or water bath at 37° C. Samples were taken periodically to measure the release profile of dexamethasone or triamcinolone acetonide using a HPLC instrument. Sampling protocol was carried out according to the following procedure: Using a disposable pipette, 8 grams of the saline solution containing dexamethasone or triamcinolone acetonide was withdrawn carefully from each vial. 8 grams of 0.9% saline solution was then added to each vial. The vials were kept at 37° C. after sampling.
The HPLC analysis was carried out using a Beckman Gold Instrument with an autosampler. […] Calibrators and samples were injected onto a C18 column (Rainin, 250×4.6 mm) containing a guard column (C18, 4.6 mm×1 cm) and analyzed, respectively. […] The dexamethasone or triamcinolone acetonide (retention times, 6-4 minutes) concentration of each sample was calculated from the standard curve using the software of the Beckman Gold instrument.
The conditions of data set [3]: cited from earlier work.
For data set [4] the following is noted: ingested 650 mg 2-ABA, cited from earlier work; for maximum synovial fluid levels / time of maximum synovial fluid levels: human knee.
For data set [5] the following is noted: continuously exceeded over an extended period of time; cited from earlier work.
Data set [6] is described as follows: In vivo release of dexamethasone from 25% dexamethasone in benzyl benzoate (DB) injected into posterior segment, vitreous humor HPLC. On the set-up: species or system rabbit. The settings on record: for mean vitreous level of dexamethasone: 25% formulation in benzyl benzoate. The method, then:
Benzyl benzoate (BB) served as placebo.
The in vivo release of the DB composition was studied in twenty-four rabbits. Twenty-five μl of 25% DB was injected into the posterior segment of one eye of twelve animals and the contralateral eye received a placebo. Another twelve animals received 50 μl of the DB in one eye and 50 μl of the BB placebo in the second eye. Animals were euthanized at the appropriate time points and vitreous humor samples were removed surgically. Dexamethasone concentration was determined by high pressure liquid chromatography (HPLC) as described in Example 5.

For another data set, the system named is blood glucose levels. The experiment in a line: Injected versus transdermal delivery of insulin, blood glucose levels. It is filed as in vivo, mouse. As to the method:
The comparison of injected versus transdermal delivery of several formulation of insulin was studied in a mouse model. One mg of porcine insulin was injected IP (intraperitoneal) into a mouse. […] One mg of porcine insulin mixed with 0.1 ml of tocopherol acetate was applied topically on the skin of a shaved mouse.
Porcine insulin (20 mg) was mixed in 199 mg/ml of tocopheryl acetate and formed a paste (or gel) which and was applied to the backs of shaved albino mice as follows: Mouse #1 was treated with 39.8 mg of insulin/tocopherol acetate paste, equaling 3.6 mg of insulin; mouse #2 was treated with 75.2 mg of insulin/tocopherol acetate paste, equaling 6.9 mg of insulin. Tail blood glucose levels were determined by Home Diagnostics, Inc. True Track smart system at intervals depicted in FIG. 22.

The conditions of data set [7]: cited from earlier work. The source holds these as a separate data set.
For data set [8] the following is noted: cited from earlier work. The source holds these as a separate data set.
The next data set deals with COX-1 and COC-2 enzymes. The settings on record: acetylation of COX enzymes, in the eye; cited from earlier work.
Where [9] appears, read: 1 mg porcine insulin injected IP.
Where [10] appears, read: 1 mg porcine insulin mixed with 0.1 ml tocopherol acetate, injected IP.

With `CO[C@H]1C[C@@H]2CC[C@@H](C)[C@@](O)(O2)C(=O)C(=O)N2CCCC[C@H]2C(=O)O[C@H]([C@H](C)C[C@@H]2CC[C@@H](O)[C@H](OC)C2)CC(=O)[C@H](C)/C=C(\C)[C@@H](O)[C@@H](OC)C(=O)[C@H](C)C[C@H](C)/C=C/C=C/C=C/1C` [Rapamycin, rapamycin], in data set [1], the “duration of release of Rapamycin” value is listed as “over five”.

Take `O=C(O)c1cn(C2CC2)c2cc(N3CCNCC3)c(F)cc2c1=O` [ciprofloxacin]: in data set [2], the duration of release result was “sixty”.

As for `O=C(O)c1ccccc1O` [2-HBA, 2-hydroxy benzoic acid], in data set [3] (after 120 hours), the 2-HBA level is 5 µg/mL. For the same compound, in data set [3] (in 20 hours), the 2-HBA level was 20 µg/mL. For the same compound, the “2-HBA level, initial burst” value in data set [3] (within 6 hours) is 640 µg/mL. Also, in data set [4], the “maximum synovial fluid levels” value is 14.5 µg/mL, the “time of maximum synovial fluid levels” value is 21.9 min, the maximum plasma levels is 23 µg/mL and the “time of maximum plasma levels” value was 10.9 min.

For `CC1(C)O[C@@H]2C[C@H]3[C@@H]4CCC5=CC(=O)C=C[C@]5(C)[C@@]4(F)[C@@H](O)C[C@]3(C)[C@]2(C(=O)CO)O1` [TA, triamcinolone acetonide], the “concentration above which harmful complications (glaucoma, cataracts, cytotoxicity) can arise” value in data set [5] is “exceed 10 μg/ml”.

Take `C[C@@H]1C[C@H]2[C@@H]3CCC4=CC(=O)C=C[C@]4(C)[C@@]3(F)[C@@H](O)C[C@]2(C)[C@@]1(O)C(=O)CO` [dexamethasone]: the “mean vitreous level of dexamethasone” value is on record as “approximately 4.0 μg/ml” in [6] (25 μl injection, over a sixty day period) and “approximately 8.0 μg/ml” in [6] (50 μl, over a three-month period). Further, the “mean concentration of released dexamethasone in vitreous humor” value in data set [6] (high dose: 50 μl 25% DB (12 mg dexamethasone), Day 7 to Day 90) was found to be 5560 ng/mL. Further, the “mean level of dexamethasone in vitreous humor” value in [6] (low dose: 25 μl 25% DB (6 mg dexamethasone), Day 7 to Day 60) was 2800 ng/mL. In addition, the concentration at 60 day in [6] (rabbit, vitreous humor, other: injected into the posterior segment of the eye, 6 mg, low dose: 25 μl 25% DB, end of the Day 7 to Day 60 period, read-out: mean level of dexamethasone in vitreous humor, declined to) was 800 ng/mL. For the same compound, the concentration at 90 day in data set [6] (rabbit, vitreous humor, other: injected into the posterior segment of the eye, 12 mg, high dose: 50 μl 25% DB, by Day 90, read-out: mean level of dexamethasone in vitreous humor) came to 1850 ng/mL.

For porcine insulin: porcine insulin, in the data set with blood glucose levels (setting [9]), the recovery from hypoglycemia result is “never recovered” and the “time to precipitous drop in glucose level” value is “one-half”. Besides, in the data set on blood glucose levels (setting [10]), the recovery from hypoglycemia entry is reported as “did not recover” and the “time over which perceptible drop in glucose level was seen” value is “up to 3 hours”. Also, the “time of lowest glucose level” value with blood glucose levels (1 mg porcine insulin mixed with 0.1 ml tocopherol acetate, topically on shaved skin) amounted to 5.5 h. Further, the “slow recovery to pre-treatment glucose levels after” value in the data set with blood glucose levels (transdermal insulin with tocopherol acetate) was in the range of 24 to 48 h.

Consider `CC(=O)Oc1ccccc1C(=O)O` [2-ABA, 2-acetyloxybenzoic acid], for which the “time in which an initial level is halved in the vitreous” value in data set [7] (initial level of 4 μg/ml) is 1.5 to 2 h. Moreover, the “concentration of 2-ABA/2-HBA in the vitreous” value in data set [7] (rabbit eyes, at plasma levels of about 20-100 μg/ml) was 5000 to 10000 ng/mL. In data set [8] (ingestion of 0.650-1.3 g 2-ABA, humans), the “combined 2-ABA/2-HBA levels in the plasma” value is 20 to 100 µg/mL. In addition, the “fraction hydrolyzed to 2-HBA in the plasma” value in data set [8] (within 30 minutes) is reported as “about 97%”. Moreover, in data set [4], the “maximum synovial fluid levels” value is 2.5 µg/mL, the “time of maximum synovial fluid levels” value was 19.4 min, the maximum plasma levels was 3.3 µg/mL and the “time of maximum plasma levels” value was 7.7 min. Moreover, the “time until gone in the blood” value in [4] is 75 min. The ID50 in the data set with COX-1 and COC-2 enzymes is 0.9 to 9.0 µg/mL.
